The values below come from patent US10732174B2, “Three dimensional tissues for high-throughput assays” (INVIVOSCIENCES, INC., priority 2008, dated 2020).

For one data set, the system named is REF-52 cells. To be noted: for cytotoxicity signs in cell monolayers (confluency, nuclei, shrinkage): 24 hours; for F-actin morphology in cells, microscopy: REF monolayers, 3 hr and 24 hr. The method, then: REF-52 cells were plated on 35 mm culture dishes (50,000 cells) in 10% FBS medium (2 ml). Cells are incubated over night and then treated with compounds. […] Cells were incubated with drugs for 24 hours prior to fixing. To fix, treated cells were rinsed once with 2 ml of phosphate buffered saline (PBS, D5652) and then incubated in 1 ml of 4% paraformaldehyde (Sigma) solution (in PBS) for 30 min. Fixed cells are rinsed twice and then stored in 2 ml of PBS.
Fixed REF-52 cells were permeabilized by incubating in 1 ml of 0.1% Triton (BP151, Fisher Scientific) solution (in PBS) for 15 min. Permeabilized cells were rinsed twice with 1 ml TBST buffer and then blocked with 1 ml of 5% goat serum in TBST for 1 hour. One milliliter of 1:200 diluted Alexa 568 conjugated phalloidin (A12380, Invitrogen) in TBST with 2% goat serum was then added to the cells. This staining solution also contained 400 nM of DAPI (D9564). Cells were stained for 30 min and then rinsed twice with TBST. Labeled cells were mounted with Vectashield (Vector Laboratories, Burlingame, Calif.), covered with a cover slide and then sealed with nail polish. The plate was then inverted on to a Leica SP5 confocal microscope (Leica Microsystems, Bannockburn, Ill.) and imaged with 63× water immersion objective. Alexa 568 was excited using the 543 laser line and DAPI was excited using a MaiTai multi-photon laser.

The subject of data set [1] is F-actin in HTCs of REF-52 cells. In words: F-actin content of HTCs, Alexa-phalloidin, plate reader. The format is cell-based, rat. To be noted: HTC treated 24 hours. The source says: FIG. 5A-FIG. 5W. FIG. 5A is a photograph of The Palpator™. The system includes an isometric force transducer (a), probe baths (b), and a hydrogel tissue construct (HTC) stage (c) on a temperature regulator plate (d). FIG. 5B is a photograph showing the x-y-z motion robotic arm which positions the force transducer with attached probe above the HTCs and lowers the probe onto the tissue for force measurement. FIG. 5C is a schematic of the robotic arm with attached force transducer and probe. FIG. 5D is a photograph of the probe positioned 1 mm above the mid-plane of a HTC (a) and then lowered until it first touches (b) and then stretches (c) the tissue. FIG. 5E is a graph showing representative forces recorded during HTC indentation. Arrows a, b, and c show force measurements associated with probe positions shown in (D). […] HTCs were preconditioned, then treated with varying concentrations of the four drugs as indicated. Forces were measured at 3 (f) and 24 hr (g). Force measurements were expressed relative to control, medium treated, HTCs (Fc). […] HTCs treated with drugs for 24 hours were fixed and labeled with Alexa 568 conjugated phalloidin. Fluorescence intensity was read on a plate reader and plotted relative to control, media treated, HTCs (Ic). […] At 3 hr (i-m) and 24 hr (n-r, s-w) post treatment, representative monolayers were fixed and stained with Alexa 568 conjugated phalloidin and DAPI. […] Note the larger scale bar in (g) and (l). Images were captured on a Leica SP5 confocal microscope using a water-immersion 63× objective, scale bar=50 μm.
Tissue force is maintained through the integrity of the cellular cytoskeleton, especially actin and myosin. To quantify amount of F (filamentous)-actin in the HTCs treated with the compounds, the HTCs were stained with Alexa […] conjugated phalloidin. […] This is in agreement with our previous report that CD mediated reduction in tissue force was due to the loss of intact F-actin. However, force reductions by H1152 and DNP were not related to the loss of F-actin. […] By 24 hours, short F-actins were re-distributed within less-spread (FIG. 5O) and binuclear (FIG. 5T) cells.

Data set [2] relates to hydrogel tissue constructs (HTCs) of REF-52 cells. As to the kind of experiment: HTC force measurement (Palpator). It counts as cell-based, rat. To be noted: for effect on tissue (HTC contractile) force, in words: 3 and 24 hr; for EC50: Rattus norvegicus, read-out: EC50 of tissue force reduction. The method, then: Rat embryonic fibroblasts (REF-52) were cultured in Dulbecco's Modified Eagle's Medium (DMEM, MT10013CM, Fisher Scientific, Pittsburgh, Pa.) supplemented with 10% fetal bovine serum (FBS, S11050, Atlanta Biologicals, Lawrenceville, Ga.). Cells were sub-cultured every two to three days. To make hydrogel tissue constructs (HTCs), REF-52 cells (between passages 40 to 70) were dissociated from culture plates by treating with 0.05% trypsin (MT-25-025-CI, Fisher Scientific) for 10 to 15 min. The cells were then centrifuged at 1000 g for 10 min. The trypsin solution was decanted and the cell pellet was re-suspended in 10% FBS DMEM medium. This cell suspension was diluted in HTC tissue solution to achieve a final concentration of 8×10^5 cells per ml. The HTC tissue solution consisted of 10% FBS DMEM, 1 mg/ml of type 1 collagen (354249, BD Biosciences, San Jose, Calif.) in 0.02 N acetic acid, sufficient sodium hydroxide to neutralize the acid in the collagen, and sufficient 5×DMEM to compensate for the volume of collagen and NaOH. To prevent premature collagen polymerization, the HTC tissue solution was kept on ice until its distribution into our custom-made tissue molds (FIG. 3). Each mold contains 8 separate HTC-forming wells with two built-in horizontal support bars. Three hundred microliters of the HTC tissue solution was aliquoted into each well in these molds and then incubated for 30 min at 37° C. and 5% CO2. After the incubation period, […] of 10% FBS DMEM medium was added to each well and the molds were further incubated for 48 hr. In this time, the solution contracted to form HTCs that span the support bars in the wells.
The Palpator™ (as described in U.S. Pat. No. 7,449,306, which is incorporated herein by reference in its entirety) was used to quantify the contractility of the HTCs. The molds were placed on the stage of the Palpator™ which automatically inserted a probe into each well and stretched the individual HTC. The probe was connected to a force transducer which measured the resistance force induced in the HTC in response to stretch and exported the values to a computer for recording. A custom Matlab algorithm was used to process and analyze the force data to report a numerical parameter that is indicative of the active cell force in the HTC. To obtain stable measurements of the HTC contractile force, it was necessary to precondition the HTCs by stretching three times prior to actual force measurement. Preconditioning was not necessary if subsequent force measurements were within 30 min of the previous stretch. HTCs at 24 hr post treatment were always pre-conditioned before force measurement.

“Also recorded” adds a separate entry of the source. Read-outs that look alike come from different tables or passages of the source.

As usually defined, the EC50 is the concentration that produces a half-maximal response.

For `C=C(C)[C@H]1Cc2c(ccc3c2O[C@@H]2COc4cc(OC)c(OC)cc4[C@@H]2C3=O)O1` [ROT, rotenone], in the data set with REF-52 cells, the “cytotoxicity signs in cell monolayers (confluency, nuclei, shrinkage)” value is recorded as “cytotoxicity was evident; also recorded: less than that of control; also recorded: Noticeable nuclear fragmentation” and the “F-actin morphology in cells, microscopy” value is listed as “limited to no effects; also recorded: did not dramatically affect F-actin morphology”. In data set [1], the “F-actin content of HTCs (Alexa-phalloidin intensity)” value is recorded as “inconclusive”. Besides, in data set [2] (HTC), the “effect on tissue (HTC contractile) force, in words” value is on record as “dose-dependently reduced HTC contractile force; also recorded: also reduced tissue force; also recorded: moderate negative impact”.

For the compound `O=[N+]([O-])c1ccc(O)c([N+](=O)[O-])c1` [DNP, 2,4-dinitrophenol], in the data set with REF-52 cells, the “cytotoxicity signs in cell monolayers (confluency, nuclei, shrinkage)” value is reported as “less than that of control” and the “F-actin morphology in cells, microscopy” value is “limited to no effects; also recorded: did not dramatically affect F-actin morphology”. Besides, the “F-actin content of HTCs (Alexa-phalloidin intensity)” value in data set [1] is recorded as “comparable to controls”. Moreover, in data set [2] (24 hr vs 3 hr), the “reduction in EC50 of effect on tissue force” value is 65 fold. Moreover, in data set [2] (HTC), the “concentration needed to reduce tissue force relative to H-1152 or CD” value is recorded as ~10,000 fold and the “effect on tissue (HTC contractile) force, in words” value is reported as “dose-dependently reduced HTC contractile force; also recorded: also reduced tissue force; also recorded: very effective at reducing HTC force”. Also, the EC50 in data set [2] (REF52, 3 h) was found to be 1300 µM. For the same compound, the concentration for a half-maximal effect (EC50) in data set [2] (REF52, 24 h) came to 20 µM.
